Assay results published in PubChem BioAssay AID256 (DTP/NCI, 2004).
“And” between values parts separate entries of the source, which are not always exact repeats. Equal values may be shown once. Inconclusive results and toxic doses are left out.

Tested on: CD2F1 mice, L1210 leukemia ip, survival T/C
Test: NCI In Vivo Anticancer Drug Screen. Data for tumor model L1210 Leukemia (intraperitoneal) in CD2F1 (CDF1) mice
Conditions: higher = longer survival
Outline: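 Ratio T/C, where T is the treated-group value and C the vehicle-dosed control value, from mice implanted with a transplantable tumor.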

[1] = endpoint: mean survival time, dose: 100.0 mg/kg/injection, schedule: Q01DX009 (ip), vehicle: saline with Tween-80
[2] = endpoint: mean survival time, dose: 200.0 mg/kg/injection, schedule: Q01DX009 (ip), vehicle: saline with Tween-80
[3] = endpoint: mean survival time, dose: 400.0 mg/kg/injection, schedule: Q01DX009 (ip), vehicle: saline with Tween-80
[4] = endpoint: mean survival time, dose: 100.0 mg/kg/injection, schedule: Q04DX003 (ip), vehicle: saline with Tween-80
[5] = endpoint: mean survival time, dose: 200.0 mg/kg/injection, schedule: Q04DX003 (ip), vehicle: saline with Tween-80
[6] = endpoint: mean survival time, dose: 400.0 mg/kg/injection, schedule: Q04DX003 (ip), vehicle: saline with Tween-80
[7] = endpoint: mean survival time, dose: 100.0 mg/kg/injection, schedule: Q04DX002 (ip), vehicle: saline with Tween-80
[8] = endpoint: mean survival time, dose: 200.0 mg/kg/injection, schedule: Q04DX002 (ip), vehicle: saline with Tween-80
[9] = endpoint: mean survival time, dose: 100.0 mg/kg/injection, schedule: Q01DX001 (ip), vehicle: saline with Tween-80
[10] = endpoint: mean survival time, dose: 200.0 mg/kg/injection, schedule: Q01DX001 (ip), vehicle: saline with Tween-80
[11] = endpoint: mean survival time, dose: 100.0 mg/kg/injection, schedule: Q01DX009 (ip), vehicle: other
[12] = endpoint: mean survival time, dose: 200.0 mg/kg/injection, schedule: Q01DX009 (ip), vehicle: other

SMILES: CCCCCCCCCCCCCCCCC1CCCC1C1CCCC1 (stereo not given)
- T/C (endpoint: mean survival time, dose: 100.0 mg/kg/injection, schedule: Q01DX001 (ip), vehicle: saline sonified): 102 % of control
- T/C (endpoint: mean survival time, dose: 200.0 mg/kg/injection, schedule: Q01DX001 (ip), vehicle: saline sonified): 101 % of control
- T/C (endpoint: mean survival time, dose: 400.0 mg/kg/injection, schedule: Q01DX001 (ip), vehicle: saline sonified): 96 % of control

SMILES: CS(=O)(=O)Nc1ccc(Nc2c3ccccc3nc3cc(N)ccc23)cc1
- T/C (endpoint: mean survival time, dose: 1.5 mg/kg/injection, schedule: Q01DX001 (ip), vehicle: saline): 160 % of control
- T/C (endpoint: mean survival time, dose: 3.0 mg/kg/injection, schedule: Q01DX001 (ip), vehicle: saline): 162 % of control
- T/C (endpoint: mean survival time, dose: 3.0 mg/kg/injection, schedule: Q01DX009 (ip), vehicle: saline): 152 % of control
- T/C (endpoint: mean survival time, dose: 5.0 mg/kg/injection, schedule: Q01DX009 (ip), vehicle: saline): 114 % of control
- T/C (endpoint: mean survival time, dose: 12.0 mg/kg/injection, schedule: Q01DX001 (ip), vehicle: saline): 175 % of control

SMILES: CC(C)(S)CNCCSC(=O)c1ccccc1
- T/C [1]: 103 % of control
- T/C [2]: 100 % of control
- T/C [3]: 94 % of control

SMILES: Nc1cc(S(=O)(=O)c2ccc(N3CCCCC3)c(N)c2)ccc1N1CCCCC1
- T/C [1]: 110 % of control
- T/C [2]: 113 % of control

SMILES: CCOC(=O)CO
- T/C (endpoint: mean survival time, dose: 50.0 mg/kg/injection, schedule: Q01DX009 (ip), vehicle: saline): 104 % of control
- T/C (endpoint: mean survival time, dose: 100.0 mg/kg/injection, schedule: Q01DX009 (ip), vehicle: saline): 93 % of control
- T/C (endpoint: mean survival time, dose: 200.0 mg/kg/injection, schedule: Q01DX009 (ip), vehicle: saline): 101 % of control

SMILES: O=CNc1ccc(C(=O)O)cc1
- T/C [4]: 94 % of control
- T/C [5]: 94 % of control
- T/C [6]: 100 % of control

SMILES: CCCCCCCCCCCCCCCCOc1ccc(S(=O)(=O)NC(C)(C)C)cc1N
- T/C [4]: 96 % of control
- T/C [5]: 93 % of control
- T/C [6]: 95 % of control

SMILES: COc1ccc(Cc2nnc(Cc3ccc(OC)c(OC)c3)nn2)cc1OC
- T/C [4]: 101 % of control
- T/C [5]: 93 % of control

SMILES: COc1cc(/C=N/Nc2ccc([N+](=O)[O-])cc2)cc(OC)c1OC
- T/C [1]: 97 % of control
- T/C [2]: 94 % of control
- T/C [3]: 98 % of control

SMILES: CC(=O)N(C)N=Nc1ccc(Cl)cc1
- T/C (endpoint: mean survival time, dose: 25.0 mg/kg/injection, schedule: Q04DX003 (ip), vehicle: Klucel (hydroxypropylcellulose) (HPC)): 109 % of control
- T/C (endpoint: mean survival time, dose: 50.0 mg/kg/injection, schedule: Q04DX003 (ip), vehicle: Klucel (hydroxypropylcellulose) (HPC)): 105 % of control
- T/C (endpoint: mean survival time, dose: 100.0 mg/kg/injection, schedule: Q04DX003 (ip), vehicle: Klucel (hydroxypropylcellulose) (HPC)): 103 % of control
- T/C (endpoint: mean survival time, dose: 200.0 mg/kg/injection, schedule: Q04DX003 (ip), vehicle: Klucel (hydroxypropylcellulose) (HPC)): 100 % of control

SMILES: Cn1ncc2c1NC(c1ccc(F)cc1)SCC2=O (stereo not given)
- T/C (endpoint: mean survival time, dose: 25.0 mg/kg/injection, schedule: Q01DX009 (ip), vehicle: gum acacia): 95 % of control and 96 % of control
- T/C (endpoint: mean survival time, dose: 50.0 mg/kg/injection, schedule: Q01DX009 (ip), vehicle: gum acacia): 97 % of control and 101 % of control
- T/C (endpoint: mean survival time, dose: 100.0 mg/kg/injection, schedule: Q01DX009 (ip), vehicle: gum acacia): 92 % of control and 95 % of control and 103 % of control
- T/C (endpoint: mean survival time, dose: 200.0 mg/kg/injection, schedule: Q01DX009 (ip), vehicle: gum acacia): 96 % of control and 104 % of control
- T/C (endpoint: mean survival time, dose: 400.0 mg/kg/injection, schedule: Q01DX009 (ip), vehicle: gum acacia): 100 % of control

SMILES: N#C/C(=C/Cc1ccccc1)Nc1ccccc1
- T/C [1]: 97 % of control
- T/C (endpoint: mean survival time, dose: 100.0 mg/kg/injection, schedule: Q04DX003 (ip), vehicle: saline sonified): 97 % of control
- T/C [2]: 101 % of control
- T/C (endpoint: mean survival time, dose: 200.0 mg/kg/injection, schedule: Q04DX003 (ip), vehicle: saline sonified): 97 % of control
- T/C [3]: 87 % of control
- T/C (endpoint: mean survival time, dose: 400.0 mg/kg/injection, schedule: Q04DX003 (ip), vehicle: saline sonified): 96 % of control

SMILES: CCCCOP(=O)(OC)OCCCC
- T/C [7]: 94 % of control
- T/C [8]: 102 % of control

SMILES: CN(C)c1ccc2c(c1)Oc1cc(N(C)C)ccc1C21OC(=O)c2ccccc21
- T/C [9]: 97 % of control
- T/C [10]: 101 % of control
- T/C (endpoint: mean survival time, dose: 400.0 mg/kg/injection, schedule: Q01DX001 (ip), vehicle: saline with Tween-80): 97 % of control

SMILES: Cc1ccc(CN(C)N=Nc2ccc(C(=O)O)cc2)cc1
- T/C (endpoint: mean survival time, dose: 25.0 mg/kg/injection, schedule: Q01DX009 (ip), vehicle: other): 91 % of control
- T/C (endpoint: mean survival time, dose: 50.0 mg/kg/injection, schedule: Q01DX009 (ip), vehicle: other): 87 % of control
- T/C [11]: 91 % of control
- T/C [12]: 87 % of control

SMILES: Cc1c2c(cc3c1CCC1(C)C3CCC1C(C)CCC(C)C(C)C)CC(O)CC2 (stereo not given)
- T/C (endpoint: mean survival time, dose: 75.0 mg/kg/injection, schedule: Q01DX001 (ip), vehicle: saline with Tween-80): 92 % of control
- T/C (endpoint: mean survival time, dose: 150.0 mg/kg/injection, schedule: Q01DX001 (ip), vehicle: saline with Tween-80): 90 % of control
- T/C (endpoint: mean survival time, dose: 300.0 mg/kg/injection, schedule: Q01DX001 (ip), vehicle: saline with Tween-80): 90 % of control

SMILES: CCCCN(CCCC)CC(O)c1cc(-c2ccc(Cl)cc2)nc2c(OC)ccc(OC)c12 (stereo not given)
- T/C [4]: 98 % of control
- T/C [5]: 102 % of control
- T/C [6]: 98 % of control

SMILES: CC1(C)OCC(CO)([N+](=O)[O-])CO1
- T/C [4]: 96 % of control

SMILES: CC(=O)Oc1cc(-c2ccccc2)c(OC(C)=O)c(N=[N+]=[N-])c1C
- T/C [9]: 101 % of control
- T/C [10]: 108 % of control

SMILES: COC(=O)C(C)(C)Br
- T/C [4]: 97 % of control
- T/C [5]: 102 % of control
- T/C [6]: 102 % of control

SMILES: CCCCCCCCCCCC(=O)Nc1ccc(C(C)C)cc1
- T/C [4]: 97 % of control
- T/C [5]: 96 % of control

SMILES: O=C(Nc1ccc([N+](=O)[O-])cc1)OCc1ccccc1
- T/C (endpoint: mean survival time, dose: 50.0 mg/kg/injection, schedule: Q04DX002 (ip), vehicle: saline with Tween-80): 104 % of control
- T/C [7]: 100 % of control
- T/C [8]: 108 % of control

SMILES: CCCCS(=O)(=O)C(c1ccccc1)c1ccccc1
- T/C (endpoint: mean survival time, dose: 100.0 mg/kg/injection, schedule: Q01DX001 (ip), vehicle: Klucel (hydroxypropylcellulose) (HPC)): 90 % of control
- T/C (endpoint: mean survival time, dose: 200.0 mg/kg/injection, schedule: Q01DX001 (ip), vehicle: Klucel (hydroxypropylcellulose) (HPC)): 96 % of control
- T/C (endpoint: mean survival time, dose: 400.0 mg/kg/injection, schedule: Q01DX001 (ip), vehicle: Klucel (hydroxypropylcellulose) (HPC)): 90 % of control

SMILES: S=C1NC(c2ccccc2)Nc2ccccc21 (stereo not given)
- T/C [4]: 91 % of control
- T/C [5]: 95 % of control

SMILES: O=S(=O)(O)C1=CC(=N\Cl)/C=CC/1=N/Cl
- T/C (endpoint: median survival time, dose: 50.0 mg/kg/injection, schedule: Q01DX009 (ip), vehicle: saline with Tween-80): 110 % of control
- T/C (endpoint: median survival time, dose: 100.0 mg/kg/injection, schedule: Q01DX009 (ip), vehicle: saline with Tween-80): 119 % of control
- T/C (endpoint: median survival time, dose: 200.0 mg/kg/injection, schedule: Q01DX009 (ip), vehicle: saline with Tween-80): 108 % of control
- T/C (endpoint: median survival time, dose: 400.0 mg/kg/injection, schedule: Q01DX009 (ip), vehicle: saline with Tween-80): 120 % of control

SMILES: Oc1ccc(I)cc1
- T/C [11]: 96 % of control
- T/C [12]: 103 % of control
- T/C (endpoint: mean survival time, dose: 400.0 mg/kg/injection, schedule: Q01DX009 (ip), vehicle: other): 111 % of control

SMILES: O=C(O)c1ccc(S(=O)(=O)N(Cl)Cl)cc1
- T/C [4]: 109 % of control
- T/C [5]: 95 % of control
- T/C [6]: 95 % of control

SMILES: N#Cc1cc([N+](=O)[O-])ccc1Cl
- T/C (endpoint: mean survival time, dose: 50.0 mg/kg/injection, schedule: Q01DX009 (ip), vehicle: saline with Tween-80): 96 % of control
- T/C [1]: 91 % of control
- T/C [4]: 105 % of control
- T/C [5]: 103 % of control

SMILES: Cc1ccc(C)c2c1CC/C(=C\c1ccccc1[N+](=O)[O-])C2=O
- T/C [4]: 96 % of control
- T/C [5]: 97 % of control
- T/C [6]: 91 % of control

SMILES: S=C(NCc1ccccc1)Nc1ncn[nH]1
- T/C (endpoint: mean survival time, dose: 12.5 mg/kg/injection, schedule: Q01DX001 (ip), vehicle: carboxymethylcellulose (CMC)): 97 % of control
- T/C (endpoint: mean survival time, dose: 25.0 mg/kg/injection, schedule: Q01DX001 (ip), vehicle: carboxymethylcellulose (CMC)): 89 % of control
- T/C (endpoint: mean survival time, dose: 50.0 mg/kg/injection, schedule: Q01DX001 (ip), vehicle: carboxymethylcellulose (CMC)): 86 % of control
- T/C (endpoint: mean survival time, dose: 100.0 mg/kg/injection, schedule: Q01DX001 (ip), vehicle: carboxymethylcellulose (CMC)): 86 % of control

SMILES: N#CCCCN1CCCCC1
- T/C (endpoint: mean survival time, dose: 6.25 mg/kg/injection, schedule: Q01DX009 (ip), vehicle: saline with Tween-80): 103 % of control
- T/C (endpoint: mean survival time, dose: 6.25 mg/kg/injection, schedule: Q04DX003 (ip), vehicle: saline): 89 % of control
- T/C (endpoint: mean survival time, dose: 12.5 mg/kg/injection, schedule: Q01DX009 (ip), vehicle: saline with Tween-80): 97 % of control
- T/C (endpoint: mean survival time, dose: 12.5 mg/kg/injection, schedule: Q04DX003 (ip), vehicle: saline): 98 % of control
- T/C (endpoint: mean survival time, dose: 25.0 mg/kg/injection, schedule: Q01DX009 (ip), vehicle: saline with Tween-80): 100 % of control
- T/C (endpoint: mean survival time, dose: 25.0 mg/kg/injection, schedule: Q04DX003 (ip), vehicle: saline): 93 % of control
